Experimental data published in patent US7915291B2, “Hepatitis C virus inhibitors” (Bristol-Myers Squibb Company, priority 2002, dated 2011).

How the values were obtained:
[1] = system: HCV replicon in Huh7 cells; assay: HCV replicon cell-based assay; set-up: species or system HCV strain 1B; conditions: Hepatitis C virus, Huh-7; HCV replicon, Huh7 cells; read-out: EC50 range
[2] = molecular target: HCV NS3/4A protease complex, BMS strain (UniProt P27958, C1454S/C1711G, species not given/STRAIN_BMS); assay: Recombinant HCV NS3/4A protease complex FRET peptide assay (BMS strain); type: biochemical, HCV genotype 1a; conditions: NS3/4A BMS strain; read-out: IC50 range
In short: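 Percent inhibition taken from the linear-range fluorescence slope relative to uninhibited control, read kinetically for about 15 min at 25° C. Enzyme (2-3 nM, BMS NS3/4A complex, lysine-tailed, Ni-NTA purified) met compound for 1 min before 2 μM FRET depsipeptide substrate started cleavage.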

C=C[C@@H]1C[C@]1(NC(=O)[C@@H]1C[C@@H](Oc2nccc3c2ccc2ccoc23)CN1C(=O)[C@@H](NC(=O)OC(C)(C)C)C(C)(C)C)C(=O)NS(=O)(=O)C1CC1 [Compound 266]
EC50 [1]: < 100 nM
IC50 [2]: < 100 nM

C=C[C@@H]1C[C@]1(NC(=O)[C@@H]1C[C@@H](Oc2ncc(OC)c3ccccc23)CN1C(=O)[C@@H](NC(=O)OC(C)(C)C)C(C)(C)C)C(=O)NS(=O)(=O)C1CC1 [Compound 251]
EC50 [1]: < 100 nM
IC50 [2]: < 100 nM

C=C[C@@H]1C[C@]1(NC(=O)[C@@H]1C[C@@H](Oc2nccc3cc(OC)ccc23)CN1C(=O)[C@@H](NC(=O)N[C@@H](C(=O)OC)C(C)C)C(C)(C)C)C(=O)NS(=O)(=O)C1CC1 [Compound 142]
EC50 [1]: < 100 nM
IC50 [2]: < 100 nM

C=C[C@@H]1C[C@]1(NC(=O)[C@@H]1C[C@@H](Oc2cncc(-c3ccncc3)c2)CN1C(=O)[C@@H](NC(=O)OC(C)(C)C)C(C)(C)C)C(=O)NS(=O)(=O)C1CC1 [Compound 422]
EC50 [1]: 1000 to 10000 nM
IC50 [2]: < 100 nM

C=C[C@@H]1C[C@]1(NC(=O)[C@@H]1C[C@@H](Oc2nccc3cc(OC)ccc23)CN1C(=O)[C@@H](NC(=O)OC(C)C)C(C)(C)C)C(=O)NS(=O)(=O)C1CC1 [Compound 17]
EC50 [1]: < 100 nM
IC50 [2]: < 100 nM

C=C[C@@H]1C[C@]1(NC(=O)[C@@H]1C[C@@H](Oc2cc(-c3ccc(F)cc3)nc3c(C)noc23)CN1C(=O)[C@@H](NC(=O)OC(C)(C)C)C(C)(C)C)C(=O)NS(=O)(=O)C1CC1 [Compound 4]
EC50 [1]: < 100 nM
IC50 [2]: < 100 nM

C=CC1C[C@]1(NC(=O)[C@@H]1C[C@@H](Oc2cc(C(F)(F)F)nc3c(C(F)(F)F)cccc23)CN1C(=O)[C@@H](NC(=O)OC(C)(C)C)C(C)(C)C)C(=O)NS(=O)(=O)C1CC1 (stereo partly drawn) [Compound 181, BOCNH-P3(L-tert-BuGly)-P2[(4R)-(2,8-bistrifluoromethyl quinolin-4-oxo)-S-proline]-P1(1R,2S Vinyl Acca)-CONHSO2-Cyclopropane]
EC50 [1]: 100 to 1000 nM
IC50 [2]: < 100 nM

CC[C@@H]1C[C@]1(NC(=O)[C@@H]1C[C@@H](Oc2nccc3c(OC)cccc23)CN1C(=O)[C@@H](NC(=O)OC(C)(C)C)C(C)(C)C)C(=O)NS(=O)(=O)C1CC1 [Compound 292]
EC50 [1]: 100 to 1000 nM
IC50 [2]: < 100 nM

C=C[C@@H]1C[C@]1(NC(=O)[C@@H]1C[C@@H](Oc2nc(-c3nccs3)cc3cc(OC)ccc23)CN1C(=O)[C@@H](NC(=O)OC(C)(C)C)C(C)(C)C)C(=O)NS(=O)(=O)C1CC1 [Compound 37]
EC50 [1]: < 100 nM
IC50 [2]: < 100 nM

CC[C@@H]1C[C@]1(NC(=O)[C@@H]1C[C@@H](Oc2nccc3c(C(F)(F)F)cccc23)CN1C(=O)[C@@H](NC(=O)OC(C)(C)C)C(C)(C)C)C(=O)NS(=O)(=O)C1CC1 [Compound 295]
EC50 [1]: 1000 to 10000 nM
IC50 [2]: 100 to 1000 nM

C=CC1C[C@]1(NC(=O)[C@@H]1C[C@@H](Oc2ccc3c(Cl)nccc3c2SCCC)CN1C(=O)[C@@H](NC(=O)OC(C)(C)C)C(C)(C)C)C(=O)NS(=O)(=O)C1CC1 (stereo partly drawn) [Compound 204, BOCNH-P3(L-t-BuGly)-P2[(4R)-(1-Chloro-5propylthio -isoquinolin-6-oxo)-S-proline]-P1(1R,2S VinylAcca)-CONHSO2Cyclopropane]
EC50 [1]: 100 to 1000 nM
IC50 [2]: < 100 nM

C=C[C@@H]1C[C@]1(NC(=O)[C@@H]1CC(Oc2nccc3cc(OC)ccc23)CN1C(=O)[C@@H](NC(=O)C1C2CC1C2)C(C)(C)C)C(=O)NS(=O)(=O)C1CC1 (some centres unmarked) [Compound 62]
EC50 [1]: < 100 nM
IC50 [2]: < 100 nM

C=C[C@@H]1C[C@]1(NC(=O)[C@@H]1CC(Oc2nccc3cc(OC)ccc23)CN1C(=O)[C@@H](NC(=O)COC)C(C)(C)C)C(=O)NS(=O)(=O)C1CC1 (some centres unmarked) [Compound 59]
EC50 [1]: 100 to 1000 nM
IC50 [2]: < 100 nM

CC[C@@H]1C[C@]1(NC(=O)[C@@H]1C[C@@H](Oc2cc3c(Cl)nccc3cc2OC)CN1C(=O)[C@@H](NC(=O)OC(C)(C)C)C(C)(C)C)C(=O)NS(=O)(=O)C1CC1 [Compound 300]
EC50 [1]: 100 to 1000 nM
IC50 [2]: < 100 nM

C=C[C@@H]1C[C@]1(NC(=O)[C@@H]1C[C@@H](Oc2nccc3c(F)cccc23)CN1C(=O)[C@@H](NC(=O)OC(C)(C)C)C(C)(C)C)C(=O)NS(=O)(=O)C1CC1 [Compound 255]
EC50 [1]: 100 to 1000 nM
IC50 [2]: < 100 nM

C=CC1C[C@]1(NC(=O)[C@@H]1C[C@@H](Oc2nnc(OC)c3ccccc23)CN1C(=O)[C@@H](NC(=O)OC(C)(C)C)C(C)(C)C)C(=O)NS(=O)(=O)C1CC1 (stereo partly drawn) [Compound 201, BOCNH-P3(L-t-BuGly)-P2-[(4R)-(4-methoxyphthalazine-1-oxo)-S -proline]-P1(1R,2S VinylAcca)-CONHSO2Cyclopropane]
EC50 [1]: < 100 nM
IC50 [2]: < 100 nM
